In brackets after ≈: the same amount, converted by molar mass.
Test system: Trichophyton benhamiae
Test: Antifungal activity against Trichophyton mentagrophytes by broth micro-dilution technique
Assay type: functional, Arthroderma benhamiae
Conditions: not given

| SMILES | MIC [µg/mL] |
| --- | --- |
| COC(=O)[C@H]1O[C@@H](Oc2cc(-c3cc(=O)c4c(O)cc(O)cc4o3)ccc2O)[C@H](O)[C@@H](O)[C@@H]1O | 6.25 (≈ 13.1 µM) |
| C[C@]1(O)CC[C@@H]2C(C(=O)O)=CO[C@@H](O[C@H]3O[C@@H](CO)[C@H](O)[C@@H](O)[C@@H]3OC(=O)c3ccc(O)cc3)[C@@H]21 | 6.25 (≈ 12.6 µM) |
| O=C(OCC1=C[C@@H](O)[C@@H]2C=CO[C@@H](O[C@H]3O[C@@H](CO)[C@H](O)[C@@H](O)[C@@H]3O)[C@H]12)c1ccc(O)cc1 | 12.5 (≈ 26.8 µM) |
| COc1ccc(-c2oc3cc(OC)c(OC)c(O)c3c(=O)c2OC)cc1OC [ARTEMETIN] | 25 (≈ 64.4 µM) |

Test system: Aspergillus fumigatus
Test: Antifungal activity against Aspergillus fumigatus by broth micro-dilution technique
Assay type: functional
Conditions: not given

| SMILES | MIC [µg/mL] |
| --- | --- |
| COC(=O)[C@H]1O[C@@H](Oc2cc(-c3cc(=O)c4c(O)cc(O)cc4o3)ccc2O)[C@H](O)[C@@H](O)[C@@H]1O | > 50 |
| C[C@]1(O)CC[C@@H]2C(C(=O)O)=CO[C@@H](O[C@H]3O[C@@H](CO)[C@H](O)[C@@H](O)[C@@H]3OC(=O)c3ccc(O)cc3)[C@@H]21 | 50 (≈ 101 µM) |
| O=C(OCC1=C[C@@H](O)[C@@H]2C=CO[C@@H](O[C@H]3O[C@@H](CO)[C@H](O)[C@@H](O)[C@@H]3O)[C@H]12)c1ccc(O)cc1 | > 50 |
| COc1ccc(-c2oc3cc(OC)c(OC)c(O)c3c(=O)c2OC)cc1OC [ARTEMETIN] | 50 (≈ 129 µM) |

Test system: Candida parapsilosis
Test: Antifungal activity against Candida parapsilosis ATCC 22019 by broth micro-dilution technique
Assay type: functional
Conditions: Lodderomyces parapsilosis

| SMILES | MIC [µg/mL] |
| --- | --- |
| COC(=O)[C@H]1O[C@@H](Oc2cc(-c3cc(=O)c4c(O)cc(O)cc4o3)ccc2O)[C@H](O)[C@@H](O)[C@@H]1O | > 50 |
| C[C@]1(O)CC[C@@H]2C(C(=O)O)=CO[C@@H](O[C@H]3O[C@@H](CO)[C@H](O)[C@@H](O)[C@@H]3OC(=O)c3ccc(O)cc3)[C@@H]21 | > 50 |
| O=C(OCC1=C[C@@H](O)[C@@H]2C=CO[C@@H](O[C@H]3O[C@@H](CO)[C@H](O)[C@@H](O)[C@@H]3O)[C@H]12)c1ccc(O)cc1 | > 50 |
| COc1ccc(-c2oc3cc(OC)c(OC)c(O)c3c(=O)c2OC)cc1OC [ARTEMETIN] | 25 (≈ 64.4 µM) |

Test system: Enterococcus faecalis
Test: Antibacterial activity against Streptococcus faecalis by broth micro-dilution technique
Assay type: functional
Conditions: not given

| SMILES | MIC [µg/mL] |
| --- | --- |
| COC(=O)[C@H]1O[C@@H](Oc2cc(-c3cc(=O)c4c(O)cc(O)cc4o3)ccc2O)[C@H](O)[C@@H](O)[C@@H]1O | > 50 |
| C[C@]1(O)CC[C@@H]2C(C(=O)O)=CO[C@@H](O[C@H]3O[C@@H](CO)[C@H](O)[C@@H](O)[C@@H]3OC(=O)c3ccc(O)cc3)[C@@H]21 | > 50 |
| O=C(OCC1=C[C@@H](O)[C@@H]2C=CO[C@@H](O[C@H]3O[C@@H](CO)[C@H](O)[C@@H](O)[C@@H]3O)[C@H]12)c1ccc(O)cc1 | > 50 |
| COc1ccc(-c2oc3cc(OC)c(OC)c(O)c3c(=O)c2OC)cc1OC [ARTEMETIN] | > 50 |

Test system: Klebsiella pneumoniae
Test: Antibacterial activity against Klebsiella pneumoniae by broth micro-dilution technique
Assay type: functional
Conditions: not given

| SMILES | MIC [µg/mL] |
| --- | --- |
| COC(=O)[C@H]1O[C@@H](Oc2cc(-c3cc(=O)c4c(O)cc(O)cc4o3)ccc2O)[C@H](O)[C@@H](O)[C@@H]1O | > 50 |
| C[C@]1(O)CC[C@@H]2C(C(=O)O)=CO[C@@H](O[C@H]3O[C@@H](CO)[C@H](O)[C@@H](O)[C@@H]3OC(=O)c3ccc(O)cc3)[C@@H]21 | 25 (≈ 50.4 µM) |
| O=C(OCC1=C[C@@H](O)[C@@H]2C=CO[C@@H](O[C@H]3O[C@@H](CO)[C@H](O)[C@@H](O)[C@@H]3O)[C@H]12)c1ccc(O)cc1 | 50 (≈ 107 µM) |
| COc1ccc(-c2oc3cc(OC)c(OC)c(O)c3c(=O)c2OC)cc1OC [ARTEMETIN] | 25 (≈ 64.4 µM) |

Test system: Escherichia coli
Test: Antibacterial activity against Escherichia coli by broth micro-dilution technique
Assay type: functional
Conditions: not given

| SMILES | MIC [µg/mL] |
| --- | --- |
| COC(=O)[C@H]1O[C@@H](Oc2cc(-c3cc(=O)c4c(O)cc(O)cc4o3)ccc2O)[C@H](O)[C@@H](O)[C@@H]1O | > 50 |
| C[C@]1(O)CC[C@@H]2C(C(=O)O)=CO[C@@H](O[C@H]3O[C@@H](CO)[C@H](O)[C@@H](O)[C@@H]3OC(=O)c3ccc(O)cc3)[C@@H]21 | 25 (≈ 50.4 µM) |
| O=C(OCC1=C[C@@H](O)[C@@H]2C=CO[C@@H](O[C@H]3O[C@@H](CO)[C@H](O)[C@@H](O)[C@@H]3O)[C@H]12)c1ccc(O)cc1 | > 50 |
| COc1ccc(-c2oc3cc(OC)c(OC)c(O)c3c(=O)c2OC)cc1OC [ARTEMETIN] | 50 (≈ 129 µM) |

Test system: Pseudomonas aeruginosa
Test: Antibacterial activity against Pseudomonas aeruginosa by broth micro-dilution technique
Assay type: functional
Conditions: not given

| SMILES | MIC [µg/mL] |
| --- | --- |
| COC(=O)[C@H]1O[C@@H](Oc2cc(-c3cc(=O)c4c(O)cc(O)cc4o3)ccc2O)[C@H](O)[C@@H](O)[C@@H]1O | > 50 |
| C[C@]1(O)CC[C@@H]2C(C(=O)O)=CO[C@@H](O[C@H]3O[C@@H](CO)[C@H](O)[C@@H](O)[C@@H]3OC(=O)c3ccc(O)cc3)[C@@H]21 | 25 (≈ 50.4 µM) |
| O=C(OCC1=C[C@@H](O)[C@@H]2C=CO[C@@H](O[C@H]3O[C@@H](CO)[C@H](O)[C@@H](O)[C@@H]3O)[C@H]12)c1ccc(O)cc1 | > 50 |
| COc1ccc(-c2oc3cc(OC)c(OC)c(O)c3c(=O)c2OC)cc1OC [ARTEMETIN] | 50 (≈ 129 µM) |

Test system: Staphylococcus aureus
Test: Antibacterial activity against Staphylococcus aureus by broth micro-dilution technique
Assay type: functional
Conditions: not given

| SMILES | MIC [µg/mL] |
| --- | --- |
| COC(=O)[C@H]1O[C@@H](Oc2cc(-c3cc(=O)c4c(O)cc(O)cc4o3)ccc2O)[C@H](O)[C@@H](O)[C@@H]1O | > 50 |
| C[C@]1(O)CC[C@@H]2C(C(=O)O)=CO[C@@H](O[C@H]3O[C@@H](CO)[C@H](O)[C@@H](O)[C@@H]3OC(=O)c3ccc(O)cc3)[C@@H]21 | 50 (≈ 101 µM) |
| O=C(OCC1=C[C@@H](O)[C@@H]2C=CO[C@@H](O[C@H]3O[C@@H](CO)[C@H](O)[C@@H](O)[C@@H]3O)[C@H]12)c1ccc(O)cc1 | > 50 |
| COc1ccc(-c2oc3cc(OC)c(OC)c(O)c3c(=O)c2OC)cc1OC [ARTEMETIN] | 25 (≈ 64.4 µM) |

Test system: Candida albicans
Test: Antifungal activity against Candida albicans by broth micro-dilution technique
Assay type: functional
Conditions: not given

| SMILES | MIC [µg/mL] |
| --- | --- |
| COC(=O)[C@H]1O[C@@H](Oc2cc(-c3cc(=O)c4c(O)cc(O)cc4o3)ccc2O)[C@H](O)[C@@H](O)[C@@H]1O | > 50 |
| C[C@]1(O)CC[C@@H]2C(C(=O)O)=CO[C@@H](O[C@H]3O[C@@H](CO)[C@H](O)[C@@H](O)[C@@H]3OC(=O)c3ccc(O)cc3)[C@@H]21 | > 50 |
| O=C(OCC1=C[C@@H](O)[C@@H]2C=CO[C@@H](O[C@H]3O[C@@H](CO)[C@H](O)[C@@H](O)[C@@H]3O)[C@H]12)c1ccc(O)cc1 | > 50 |
| COc1ccc(-c2oc3cc(OC)c(OC)c(O)c3c(=O)c2OC)cc1OC [ARTEMETIN] | > 50 |

Test system: Cryptococcus neoformans
Test: Antifungal activity against Cryptococcus neoformans by broth micro-dilution technique
Assay type: functional
Conditions: not given

| SMILES | MIC [µg/mL] |
| --- | --- |
| COC(=O)[C@H]1O[C@@H](Oc2cc(-c3cc(=O)c4c(O)cc(O)cc4o3)ccc2O)[C@H](O)[C@@H](O)[C@@H]1O | 6.25 (≈ 13.1 µM) |
| C[C@]1(O)CC[C@@H]2C(C(=O)O)=CO[C@@H](O[C@H]3O[C@@H](CO)[C@H](O)[C@@H](O)[C@@H]3OC(=O)c3ccc(O)cc3)[C@@H]21 | 6.25 (≈ 12.6 µM) |
| O=C(OCC1=C[C@@H](O)[C@@H]2C=CO[C@@H](O[C@H]3O[C@@H](CO)[C@H](O)[C@@H](O)[C@@H]3O)[C@H]12)c1ccc(O)cc1 | 12.5 (≈ 26.8 µM) |
| COc1ccc(-c2oc3cc(OC)c(OC)c(O)c3c(=O)c2OC)cc1OC [ARTEMETIN] | 12.5 (≈ 32.2 µM) |

Test system: Sporothrix schenckii
Test: Antifungal activity against Sporothrix schenckii by broth micro-dilution technique
Assay type: functional
Conditions: not given

| SMILES | MIC [µg/mL] |
| --- | --- |
| COC(=O)[C@H]1O[C@@H](Oc2cc(-c3cc(=O)c4c(O)cc(O)cc4o3)ccc2O)[C@H](O)[C@@H](O)[C@@H]1O | > 50 |
| C[C@]1(O)CC[C@@H]2C(C(=O)O)=CO[C@@H](O[C@H]3O[C@@H](CO)[C@H](O)[C@@H](O)[C@@H]3OC(=O)c3ccc(O)cc3)[C@@H]21 | > 50 |
| O=C(OCC1=C[C@@H](O)[C@@H]2C=CO[C@@H](O[C@H]3O[C@@H](CO)[C@H](O)[C@@H](O)[C@@H]3O)[C@H]12)c1ccc(O)cc1 | > 50 |
| COc1ccc(-c2oc3cc(OC)c(OC)c(O)c3c(=O)c2OC)cc1OC [ARTEMETIN] | > 50 |

Reference: ChEMBL document CHEMBL1138373, “New antifungal flavonoid glycoside from Vitex negundo” (2007)
